According to patent US20220220100A1 (SOLUTIA CANADA INC., priority 2019, published 2022):

Legend:
[1] = UV/Vis absorbance at 400 nm and Yellowness Index of the ring-open isomer; type: physicochemical; conditions: for Abs @ 400 nm, RO (Absorption of ring-open isomer at 400 nm): 2×10^−5 M solution, 1 cm pathlength cuvette
Procedure, shortened: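 Compound measured as a 2×10^−5 M solution in a 1 cm cuvette after photofading with visible light until visible absorption stabilized. Absorbance at 400 nm and Yellowness Index refer to this ring-open isomer.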

[2] = Photostability: xenon arc weathering of chromophore solutions, LCMS analysis; type: physicochemical; conditions: for Ketone (%) / Minus-2HF (%) / Minus-HF (%) / Sulfone (%) / Chromophore Remaining (%): xenon arc, 82° C. bp; for Ketone (%) / Minus-2HF (%) / Minus-HF (%) / Sulfone (%): linearly interpolated to 0.5 MJ/m2 @ 340 nm; for Chromophore Remaining (%): linearly interpolated to 0.5 MJ/m2 @ 340 nm of exposure energy; for Photostability (in words): weathering experiments
Procedure, shortened: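 Chromophores were dissolved at 1 to 10 wt % in Rhodiasolv IRIS at 90° C, then sealed under glovebox conditions in glass cells laminated with 400 nm UV-cutoff PVB. The cells were weathered continuously in a xenon arc chamber with no dark or spray cycles. Solutions were then diluted in acetonitrile and analysed by reverse-phase LC-MS.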

[3] = 10 wt %, interpolated to 0.5 MJ/m^2 of energy exposure at 340 nm
[4] = 3 wt %, interpolated to 0.5 MJ/m^2 of energy exposure at 340 nm
[5] = 1 wt %, interpolated to 0.5 MJ/m^2 of energy exposure at 340 nm

Row | SMILES | YI (Yellowness Index) [1] | Abs @ 400 nm, RO (Absorption of ring-open isomer at 400 nm) [1] | Ketone (%) ([2]; 10 wt % in Rhodiasolv IRIS) | Minus-2HF (%) ([2]; 10 wt % in Rhodiasolv IRIS) | Minus-HF (%) ([2]; 10 wt % in Rhodiasolv IRIS) | Sulfone (%) ([2]; 10 wt % in Rhodiasolv IRIS) | Chromophore Remaining (%) ([2]; 10 wt % in Rhodiasolv IRIS) | Ratio of chromophore remaining relative to S340 [2, 3] | Photostability (in words) [2] | Ketone (%) ([2]; 3 wt % in Rhodiasolv IRIS) | Minus-2HF (%) ([2]; 3 wt % in Rhodiasolv IRIS) | Minus-HF (%) ([2]; 3 wt % in Rhodiasolv IRIS) | Sulfone (%) ([2]; 3 wt % in Rhodiasolv IRIS) | Chromophore Remaining (%) ([2]; 3 wt % in Rhodiasolv IRIS) | Ratio of chromophore remaining relative to S340 [2, 4] | further results
1 | COCCCOc1cc2oc(-c3ccc(C(C)(C)C)cc3)c(C3=C(c4cc(-c5cc6c(s5)C(C)(C)CCC6(C)C)sc4-c4cc5c(s4)C(C)(C)CCC5(C)C)C(F)(F)C(F)(F)C3(F)F)c2cc1OCCCOC [Chromophore S388, 3-(2-(2,5-bis(4,4,7,7-tetramethyl-4,5,6,7-tetrahydrobenzo[b]thiophen-2-yl)thiophen-3-yl)-3,3,4,4,5,5-hexafluorocyclopent-1-en-1-yl)-2-(4-(tert-butyl)phenyl)-5,6-bis(3-methoxypropoxy)benzofuran] | 6.3 | 0.132 | 0.2 | 0.0 | 0.0 | 0.4 | 97.7 | 1.07 | high photostability | – | – | – | – | – | – | Formation of the Minus-HF degradation product (in words) [2]: prevents the Minus-HF product
2 | CC(C)(C)c1ccc(-c2oc3cc(OCCN4CCOC4=O)c(OCCN4CCOC4=O)cc3c2C2=C(c3cc(-c4cc5c(s4)C(C)(C)CCC5(C)C)sc3-c3cc4c(s3)C(C)(C)CCC4(C)C)C(F)(F)C(F)(F)C2(F)F)cc1 [Chromophore S390, 3,3′-(((3-(2-(2,5-bis(4,4,7,7-tetramethyl-4,5,6,7-tetrahydrobenzo[b]thiophen-2-yl)thiophen-3-yl)-3,3,4,4,5,5-hexafluorocyclopent-1-en-1-yl)-2-(4-(tert-butyl)phenyl)benzofuran-5,6-diyl)bis(oxy))bis(ethane-2,1-diyl))bis(oxazolidin-2-one)] | 6.48 | 0.133 | 0.0 | 0.0 | 0.0 | 0.0 | 98.8 | 1.08 | high photostability | – | – | – | – | – | – | –
3 | CC(=O)Oc1cc2oc(-c3ccc(C(C)(C)C)cc3)c(C3=C(c4cc(-c5cc(C(C)(C)C)cs5)sc4-c4cc(C(C)(C)C)cs4)C(F)(F)C(F)(F)C3(F)F)c2cc1OC(C)=O [Chromophore S396, 2-(4-(tert-butyl)phenyl)-3-(2-(4,4″-di-tert-butyl-[2,2′:5′,2″-terthiophen]-3′-yl)-3,3,4,4,5,5-hexafluorocyclopent-1-en-1-yl)benzofuran-5,6-diyl diacetate] | 2.78 | 0.08 | – | – | – | – | – | – | high photostability | 1.0 | 0.0 | 0.0 | 0.0 | 97.9 | 1.07 | –
4 | COc1ccc2oc(-c3ccc(C(C)(C)C)cc3)c(C3=C(c4cc(-c5cc6c(s5)C(C)(C)CCC6(C)C)sc4-c4cc5c(s4)C(C)(C)CCC5(C)C)C(F)(F)C(F)(F)C3(F)F)c2c1 [Chromophore S400] | 6.67 | 0.125 | – | – | – | – | – | – | high photostability | 0.8 | 1.4 | 0.0 | 0.0 | 96.7 | 1.06 | –
5 | COc1cc2oc(-c3ccc(C(C)(C)C)cc3)c(C3=C(c4cc(-c5cc6c(s5)C(C)(C)CCCC6(C)C)sc4-c4cc5c(s4)C(C)(C)CCCC5(C)C)C(F)(F)C(F)(F)C3(F)F)c2cc1OC [Chromophore S405] | 7.26 | 0.143 | – | – | – | – | – | – | high photostability | – | – | – | – | – | – | Ketone (%) ([2]; 1 wt % in Rhodiasolv IRIS): 2.9%; Minus-2HF (%) ([2]; 1 wt % in Rhodiasolv IRIS): 0.0%; Minus-HF (%) ([2]; 1 wt % in Rhodiasolv IRIS): 0.0%; Sulfone (%) ([2]; 1 wt % in Rhodiasolv IRIS): 0.0%; Chromophore Remaining (%) ([2]; 1 wt % in Rhodiasolv IRIS): 97.1%; Ratio of chromophore remaining relative to S340 [2, 5]: 1.07; Sum of degradation product percentages relative to the sum of degradation product percentages for S340 [2, 5]: 0.33
